This is an account of results in patent publication US8623830B2, “Compositions containing α-1-antitrypsin and methods for use” (Beth Israel Deaconess Medical Center, Inc., priority 2006, dated 2014).

Data set [1] concerns 1-AZT, a misfolded but functionally active mutant of α1-antitrypsin. The settings on record: model cell culture system; cited from earlier work.
In data set [2] the test system is new onset diabetic NOD mice. In words: Treatment of new onset diabetic NOD mice, blood glucose monitoring (normoglycemia). Type of data set: in vivo, mouse. An excerpt: Female NOD (NOD/LtJx) mice and NOD.SCID (NOD.CB17-Prkdc^scid/J) were purchased from Jackson Laboratories (Bar Harbor, Me.) at 4 weeks of age and maintained under pathogen-free conditions in a conventional animal facility at Massachusetts General Hospital (Boston, Mass.). All animal studies were approved by our institutional review boards. The blood glucose levels of NOD mice were monitored weekly with the ACCU-CHECK® blood glucose monitor system (Roche, Indianapolis, Ind.). […] For syngeneic islet transplant recipients, blood glucose levels were checked at the time of transplantation, then daily for the first two weeks, and then 2 to 3 times per week afterward.
ARALAST™ (α1-proteinase inhibitor, human) is a major serum serine-protease inhibitor that inhibits the enzymatic activity of neutrophil elastase, cathespin G, proteinase 3, thrombin, trypsin, and chymotrypsin. ARALAST™ was purchased from Baxter (Westlake Village, Calif.) and was given at a dose of 2 mg i.p. every 3 days, for a total of 5 injections.

For data set [3] the following is noted: cited from earlier work.
Data set [4] concerns insulin receptor substrate-1 (IRS-1). In words: In vivo insulin signaling in skeletal muscle, immunoblotting of IRS-1 phosphorylation. On the set-up: species or system mouse. The settings on record: skeletal muscle of new onset diabetic NOD mice, FIG. 1. On the procedure: (§1) FIG. 1 is a pair of bar graphs representing the results obtained from studies of insulin signaling in skeletal muscle. The upper graph charts insulin receptor (IR) phosphorylation and the lower graph charts insulin receptor substrate-1 (IRS-1) phosphorylation in control, diabetic, and treated animals.
(§2) In vivo insulin signaling experiments were performed on mice after a 16 hour fast. Mice were injected i.p. with 20 U/kg BW of human insulin (Eli Lilly) or saline. Skeletal muscle (gastronemius) was dissected and frozen in liquid nitrogen for immunoblotting analysis of insulin signaling proteins.
(§3) Skeletal muscle (gastronemius), obtained in the context of our in vivo insulin signaling studies, was homogenized in a modified radioimmunoprecipitation assay (RIPA) buffer containing 50 mM Tris-HCl, 1 mM EDTA, 1% NP-40, 0.25% sodium deoxycholate, 150 mM NaCl, 1 mM PMSF, 200 μM […], supplemented with 1% protease inhibitor cocktail (Sigma), and 1% tyrosine phosphatase inhibitor cocktail (Sigma). Cell homogenates were incubated on ice for 45 minutes to solubilize all proteins, and insoluble portions were removed by centrifugation at 14,000 g at 4° C. for 15 minutes. Whole cell lysates were separated by SDS-polyacrylamide gel electrophoresis (PAGE). […] The blots were quantified using densitometry (Molecular Dynamics, Sunnvale, Calif.).

The subject of the next data set is insulin receptor (IR). As to the kind of experiment: In vivo insulin signaling in skeletal muscle, immunoblotting of IR phosphorylation. Further details: species or system mouse. Particulars: skeletal muscle of new onset diabetic NOD mice, FIG. 1. On the procedure:
as §1, §2, §3
On the technique in general: In western blotting, separated proteins are transferred to a membrane and probed.

The conditions of data set [5]: subcutaneous injection of 25 mg twice a week; average; cited from earlier work.

Consider `O=C(O)CCCc1ccccc1` [PBA, 4-phenylbutyric acid], for which, in data set [1], the “Secretion of 1-AZT” value is given as “marked increase”. For “AAT: α1-antitrypsin, plasma serine protease inhibitor (serpin)”, the “Effect of a short course on glycemia” value in data set [2] is listed as “restores normoglycemia”. Also, the “Half life in plasma” value in data set [3] was “approximately six”. Consider “Aralast ™: α1-proteinase inhibitor, human; major serum serine-protease inhibitor, purchased from Baxter”, for which the “Days after treatment (how long the animals have been normoglycemic)” value in data set [2] (animals still alive at writing) lay in the range of 90 to 300 days. The “Phosphorylation of insulin receptor substrate-1 (IRS-1)” value in data set [4] is reported as “restored”. The “Tyrosyl-phosphorylation of insulin receptor (IR)” value with insulin receptor (IR) is “restored”. For the compound Etanercept, the “Time to peak blood levels” value in data set [5] was 72 h.
